Reference: patent publication US5043166A, “Liposome/anthraquinone drug composition and method” (priority 1989, dated 1991)
Like-named read-outs stand apart in the source and are kept apart here.

What was measured:
[1] = cited from earlier work
human cancer patients = test: clinical trials with L-DXR in cancer patients; settings: in vivo
Procedure: Eight cancer patients have been treated with the L-DXR composition of Example III. The administration of the drug was done using a 120 ml "Voluset" at a concentration of approximately 0.5 mg/ml in isotonic saline and at a rate of 2-3 ml per min. For intraarterial injections, peristaltic pumps were used, with the rate of infusion being ~1.5 ml/min. […] This was done taking advantage of previously implanted pumps. In both patients, the perfusion of the liver with the pump was previously examined with a Tc-99 labeled macroaggregated albumin scan.

[2] = system: myeloid centers in the spleen; settings: 10 mg/kg of DXR; cited from earlier work
[3] = liposome form, animals; cited from earlier work
[4] = repeated administration of graded doses of F-DXR and L-DXR; type: in vivo, mice; settings: mouse, in vivo, iv, 10 mg/kg, read-out: % Surviving; for survival at 1008 h: day 42, 10 mg/kg
Procedure: L-DXR was prepared as in Example I, to final DXR concentrations of 0.5, 0.75, and 1.0 mg/ml, corresponding to phospholipid concentrations of 8, 12, and 16 μmole/ml, respectively, and cholesterol concentrations of 3.2, 4.8, and 6.4 μmole/ml, respectively. Free DXR (F-DXR) was prepared in sterile, pyrogen-free physiologic saline solution to final concentrations of 0.5, 0.75, and 1 mg/ml.
Sabra mice were divided into groups of 15 mice. Three different doses of either F-DXR or L-DXR were tested: 5, 7.5, and 10 mg/kg body weight. Each dose level was tested on 15 male and 15 female mice. Treatment was administered as a bolus injection through the tail vein on days 0, 14, 28, 42, 56, 70, 84, and 98 of the experiment. The pulsed injection scheme was used for the purpose of achieving high cumulative doses, prolonging the period of exposure of the animals to the drug, and mimicking the way DXR is usually administered in clinical practice. In view of the toxicity observed after single injection (Example XI), DXR was administered at a maximum 10 mg/kg dosage so that the occurrence of acute toxicity would be reduced or nil. In order to avoid the overlapping myelosuppression of successive treatment, 14 days were allowed between successive injections, based on previous observations that full regeneration of the activity of myeloid centers in the spleen after treatment with 10 mg/kg of DXR occurred between 7-12 days after drug administration.
During the course of the experiment, mice were inspected daily and survival curves were recorded. Whenever possible, dead mice were autopsied and a limited sample of organs sent for histopathological examination. Blood counts and body weights were checked weekly. The blood counts were done in a Coulter analyzer with a 20 μl sample obtained from the retro-orbital blood sinuses. One-third of the mice of each group were sacrificed on day 42, after 3 injections. A second third was sacrificed on day 84, after 6 injections. The remaining mice were sacrificed on day 180, 82 days after the 8the and last injection. Before sacrifice, the mice were bled under light ether anesthesia to obtain serum for the biochemical tests. The animals were then dissected and the removed organs, after weighing, were fixed in Bouin's solution and processed for light microscopy examination with hematoxylin-eosin-phosphomolybdic acid: light green stain.
(c) Effects on Body and Organ Weights. […] The weight measurements were made 42, 84, and 180 days after initial drug injection. The body and organ weights are expressed in percent relative to untreated mice. The percent survivors at each of the three time points is indicated at the top in the table; the dashes (-) indicate no survivors.

## COc1cccc2c1C(=O)c1c(O)c3c(c(O)c1C2=O)C[C@@](O)(C(=O)CO)C[C@@H]3O[C@H]1C[C@H](N)[C@H](O)[C@H](C)O1 [DXR, doxorubicin]
[1]; repeated administration
  cardiac toxicity on repeated administration: cumulative and irreversible cardiac damage
[1]; soluble form
  acute toxicity: malaise, nausea, vomiting myelosuppression, and severe alopecia
Human cancer patients
  fever: fever was a constant feature
[2]
  full regeneration of myeloid centers in the spleen: 7 to 12 days
[3]
  toxicity as judged by reduced mortality: significantly less toxic, as judged by reduced mortality
[4]; female
  survival at 1008 h: 93%
[4]; female, day 84, 10 mg/kg
  survival at 2016 h: 27%
[4]; male
  survival at 1008 h: 87%
